Measurements published in patent publication US20070202090A1, “Water Soluble Form Of Coenzyme Q10 In The Form Of An Inclusion Complex With Beta-Cyclodextrin, Process Of Preparing, And Use Thereof” (priority 2004, published 2007).

Tests used:
[1] = Dissolution of CoQ10 in dairy products and orange juice; assay type: physicochemical; settings: about 35-37 mg CoQ10 in about 200 g product
Description: β-Cyclodextrin (7.90 g, 6.95 mmole) was dissolved in distilled water (68 mL) at 65-70° C., and under stirring was added CoQ10 (5.00 g, 5.79 mmole). After about 30 minutes the CDQ10 complex precipitated. The reaction mixture was kept stirring for about 10 hours at 70° C., and 10 hours at room temperature, till the formation of an intensive yellow coloured paste. Then equal aliquots (each 500 μL containing about 37 mg of CoQ10 in the form of CDQ10) of the obtained mixture were admixed to about 200 g each: milk (3.5% of milk fat, Ljubljanske miekarne), liquid yoghurt (1.3% of milk fat, Ljubljanske miekarne), fruit yoghurt (peach, Ljubljanske miekarne) and orange juice (100%, Rauch). The obtained preparations were organoleptically compared with non-lemented supplemented milk, liquid yoghurt, fruit yoghurt and orange juice, as well as with those supplemented each with about 35-37 mg CoQ10. As CoQ10 was not dissolved in said products, they were not included in the tests. The tests were performed by 10-21 randomly chosen consumers.

[2] = Comparison of milk-solubility of CoQ10 and CDQ10 (saturation, HPLC); assay type: physicochemical; settings: fresh milk 3.5% milk fat, room temperature, addition till saturation, filtrate
Description: β-Cyclodextrin (1.575 g, 1.39 mmole) was dissolved in 13 mL of distilled water at 60-70° C. Then 1.00 g (1.16 mmole) of CoQ10 were added to the dissolved β-cyclodextrin, and the mixture was stirred for 20 minutes at 60-70° C. After stirring for some minutes the CDQ10 complex started to precipitate. The reaction mixture was kept stirring for about 8 hours at 60-70° C., and about 2 hours at room temperature, till the formation of a homogenous paste. Then the obtained mixture was under stirring at room temperature added to fresh milk containing 3.5% of milk fat (Ljubljanske mlekarne) till saturation. Into another milk aliquot was added under identical conditions CoQ10 till saturation. […]

dissolution in milk, liquid yoghurt, fruit yoghurt and orange juice [1]: not dissolved
Concentration of CoQ10 in milk [2]: 3.2 µg/g
Structure (SMILES): COC1=C(OC)C(=O)C(C/C=C(\C)CC/C=C(\C)CC/C=C(\C)CC/C=C(\C)CC/C=C(\C)CC/C=C(\C)CC/C=C(\C)CC/C=C(\C)CC/C=C(\C)CCC=C(C)C)=C(C)C1=O [CoQ10, coenzyme Q10]
